Results on 23 molecules are retold here after patent publication US12692261B2, “Substituted heterocyclic compounds and therapeutic uses thereof” (Bayer Aktiengesellschaft, priority 2020, dated 2026).

Assay [1] deals with T1, full-length human CSNK1A1 (Homo sapiens, UniProt P48729).
T1 construct: N-terminal Glutathion-S-Transferase (GST) and full-length human CSNK1A1; purchased Life Technologies PV4174; host or cells: baculovirus infected insect cells
Briefly: CSNK1A1 Assay 2 (ADP-Glo, 1 μM ATP, substrate biotin-Ahx-KRRRAL-pS-VASLPGL). The following applies: Table 3, read-out: CSNK1A1 Assay 2 IC50 [mol/l] (median). The format is biochemical. The method in brief:
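GST-tagged full-length human CSNK1A1 from baculovirus-infected insect cells (about 0.0375 ng/μL), preincubated 15 min at 22 °C with compound in HEPES pH 7.5 buffer, with 1 μM ATP and biotin-Ahx-KRRRAL-pS-VASLPGL substrate. ADP formed read by ADP-Glo luminescence.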
(ADP-Glo turns the ADP formed in a reaction into a luminescent signal.)

Assay [2] addresses T1, full-length human CSNK1A1. Briefly: CSNK1A1 High ATP Assay (ADP-Glo, 1 mM ATP).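 Also: 30 min kinase reaction at 22 °C with 100 µM peptide substrate.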 It is filed as biochemical. Conditions: Table 3, read-out: CSNK1A1 high ATP assay IC50 [mol/l] (median). The method, boiled down:
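GST-tagged full-length human CSNK1A1 from baculovirus-infected insect cells (typically about 0.4 ng/μL), pre-incubated with compound 15 min at 22 °C. Reaction with biotinylated peptide biotin-Ahx-KRRRAL-pS-VASLPGL at 1 mM ATP. ADP formed read by ADP-Glo luminescence.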

Bounds are passed on as bounds.

T1 sequence (P48729 whole entry): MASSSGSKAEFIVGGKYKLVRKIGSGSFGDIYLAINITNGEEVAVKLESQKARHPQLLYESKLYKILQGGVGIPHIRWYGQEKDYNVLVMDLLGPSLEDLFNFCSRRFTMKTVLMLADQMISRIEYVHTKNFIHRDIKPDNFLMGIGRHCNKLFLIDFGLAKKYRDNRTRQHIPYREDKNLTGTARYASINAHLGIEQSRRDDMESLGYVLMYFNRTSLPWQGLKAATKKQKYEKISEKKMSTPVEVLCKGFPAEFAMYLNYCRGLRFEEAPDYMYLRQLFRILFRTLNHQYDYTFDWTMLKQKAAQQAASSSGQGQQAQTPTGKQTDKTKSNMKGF

Take `O=C(Nc1cc(-c2[nH]c3cccnc3c2-c2ccccc2)ccn1)C(CC(F)F)c1ccc(F)cc1` (single isomer, unassigned; (-)) [Example 23, (−)-4,4-difluoro-2-(4-fluorophenyl)-N-[4-(3-phenyl-1H-pyrrolo[3,2-b]pyridin-2-yl)pyridin-2-yl]butanamide]: the IC50 was found to be 33.6 nM in assay [1] and 3740 nM in assay [2].
Taken in the same sequence, the figures for `Cc1cc(F)nc2c(-c3ccccn3)c(-c3ccnc(NC(=O)C(CC(F)F)c4ccc(F)cc4)c3)[nH]c12` (single isomer, unassigned; (-)) [Example 38, (−)-4,4-difluoro-N-{4-[5-fluoro-7-methyl-3-(pyridin-2-yl)-1H-pyrrolo[3,2-b]pyridin-2-yl]pyridin-2-yl}-2-(4-fluorophenyl)butanamide] were 2.26 nM and 2.26 nM.
Take `O=C(Nc1cc(-c2[nH]c3cncnc3c2-c2ccccn2)ccn1)C(CC(F)F)c1ccc(F)cc1` (single isomer, unassigned; (+)) [Example 15, (+)-4,4-difluoro-2-(4-fluorophenyl)-N-{4-[7-(pyridin-2-yl)-5H-pyrrolo[3,2-d]pyrimidin-6-yl]pyridin-2-yl}butanamide]: the IC50 in assay [1] was determined as 1.32 nM; in assay [2], 30.9 nM.
Taken in the same sequence, the figures for `O=C(Nc1cc(-c2[nH]c3cccnc3c2-c2cccc(F)n2)ccn1)C(CC(F)F)c1ccc(F)cc1` (racemic) [Example 25, 4,4-difluoro-2-(4-fluorophenyl)-N-{4-[3-(6-fluoropyridin-2-yl)-1H-pyrrolo[3,2-b]pyridin-2-yl]pyridin-2-yl}butanamide] were 2.77 nM and 18.6 nM.
The corresponding values for `O=C(Nc1cc(-c2[nH]c3c(OCC4CC4)ncnc3c2-c2ccccn2)ccn1)C(CC(F)F)c1ccc(F)cc1` (single isomer, unassigned) [Example 129, (2R or S)—N-{4-[4-(cyclopropylmethoxy)-7-(pyridin-2-yl)-5H-pyrrolo[3,2-d]pyrimidin-6-yl]pyridin-2-yl}-4,4-difluoro-2-(4-fluorophenyl)butanamide] are 4.52 nM and 10.3 nM.
The corresponding values for `O=C(Nc1cc(-c2[nH]c3c(OC4CC4)cc(F)nc3c2-c2ccccn2)ccn1)C(CC(F)F)c1ccc(F)cc1` (stereo not shown) [Example 45] are 22.3 nM and 22.3 nM.
Take `O=C(Nc1cc(-c2[nH]c3c(OC[C@H]4COCCO4)cc(F)nc3c2-c2ccccn2)ccn1)C(CC(F)F)c1ccc(F)cc1` (mixture of isomers) [Example 50, (2RS)—N-{4-[7-{[(2R)-1,4-dioxan-2-yl]methoxy}-5-fluoro-3-(pyridin-2-yl)-1H-pyrrolo[3,2-b]pyridin-2-yl]pyridin-2-yl}-4,4-difluoro-2-(4-fluorophenyl)butanamide]: the IC50 in assay [1] and in assay [2] was 9.34 nM in each case.
As for `CC(C)(O)c1cc(F)nc2c(-c3ccccn3)c(-c3ccnc(NC(=O)C(CC(F)F)c4ccc(F)cc4)c3)[nH]c12` (single isomer, unassigned) [Example 100, (2R or S)-4,4-difluoro-N-{4-[5-fluoro-7-(2-hydroxypropan-2-yl)-3-(pyridin-2-yl)-1H-pyrrolo[3,2-b]pyridin-2-yl]pyridin-2-yl}-2-(4-fluorophenyl)butanamide], the IC50 in assay [1] and in assay [2] was 33.6 nM throughout.
Regarding `O=C(Nc1cc(-c2[nH]c3cccnc3c2-c2ccccn2)ccn1)C(CCO)c1ccc(F)cc1` (stereo not shown) [Example 104, 2-(4-fluorophenyl)-4-hydroxy-N-(4-(3-(pyridin-2-yl)-1H-pyrrolo[3,2-b]pyridin-2-yl)pyridin-2-yl)-butanamide], the IC50 in assay [1] and in assay [2] was 6.29 nM in each case.
As for `O=C(Nc1cc(-c2[nH]c3cccnc3c2-c2cccc(F)n2)ccn1)C(CC(F)F)c1ccc(F)cc1` (single isomer, unassigned; (-)) [Example 26, (−)-4,4-difluoro-2-(4-fluorophenyl)-N-{4-[3-(6-fluoropyridin-2-yl)-1H-pyrrolo[3,2-b]pyridin-2-yl]pyridin-2-yl}butanamide], the IC50 in assay [1] and in assay [2] was 15.8 nM in each case.
With `COc1cnc2c(-c3ccccn3)c(-c3ccnc(NC(=O)C(CC(F)F)c4ccc(F)cc4)c3)[nH]c2n1` (single isomer, unassigned) [Example 103, 4,4-difluoro-2-(4-fluorophenyl)-N-{4-[3-methoxy-7-(pyridin-2-yl)-5H-pyrrolo[2,3-b]pyrazin-6-yl]pyridin-2-yl}butanamide], the IC50 in assay [1] and in assay [2] was 1.97 nM each time.
For `O=C(Nc1cc(-c2[nH]c3c(C4CCCO4)cc(F)nc3c2-c2ccccn2)ccn1)C(CC(F)F)c1ccc(F)cc1` (single isomer, unassigned) [Example 117, (2R or S)-4,4-difluoro-N-(4-{5-fluoro-7-[(2R or S)-oxolan-2-yl]-3-(pyridin-2-yl)-1H-pyrrolo[3,2-b]pyridin-2-yl}pyridin-2-yl)-2-(4-fluorophenyl)butanamide], the IC50 was 9.89 nM in assay [1] and 3570 nM in assay [2].
As for `O=C(Nc1cc(-c2[nH]c3c(CC4CC4)cc(F)nc3c2-c2ccccn2)ccn1)C(CC(F)F)c1ccc(F)cc1` (racemic) [Example 46, (2RS)—N-{4-[7-(cyclopropylmethyl)-5-fluoro-3-(pyridin-2-yl)-1H-pyrrolo[3,2-b]pyridin-2-yl]pyridin-2-yl}-4,4-difluoro-2-(4-fluorophenyl)butanamide], the IC50 in assay [1] and in assay [2] was 23.2 nM in each case.
With `Cc1ccc2[nH]c(-c3ccnc(NC(=O)C(CC(F)F)c4ccc(F)cc4)c3)c(-c3ccccn3)c2n1` (single isomer, unassigned) [Example 5, 4,4-difluoro-2-(4-fluorophenyl)-N-{4-[5-methyl-3-(pyridin-2-yl)-1H-pyrrolo[3,2-b]pyridin-2-yl]pyridin-2-yl}butanamide], the IC50 was 4.43 nM in assay [1] and 119 nM in assay [2].
Taken in the same sequence, the figures for `O=C(Nc1cc(-c2[nH]c3cccnc3c2-c2ccccc2)ccn1)C(CC(F)F)c1ccc(F)cc1` (single isomer, unassigned; (+)) [Example 24, (+)-4,4-difluoro-2-(4-fluorophenyl)-N-[4-(3-phenyl-1H-pyrrolo[3,2-b]pyridin-2-yl)pyridin-2-yl]butanamide] were 1.62 nM and 66.6 nM.
The corresponding values for `O=C(Nc1cc(-c2[nH]c3ccc(F)nc3c2-c2ccc(F)cn2)ccn1)C(CC(F)F)c1ccc(F)cc1` (single isomer, unassigned; (-)) [Example 110, (−)-4,4-difluoro-N-{4-[5-fluoro-3-(5-fluoropyridin-2-yl)-1H-pyrrolo[3,2-b]pyridin-2-yl]pyridin-2-yl}-2-(4-fluorophenyl)butanamide] are 47.6 nM and 47.6 nM.
The corresponding values for `O=C(Nc1cc(-c2[nH]c3c(OCC(F)(F)F)ncnc3c2-c2ccccn2)ccn1)C(CC(F)(F)F)c1ccc(F)cc1` (single isomer, unassigned) [Example 127, (2R or S)-4,4,4-trifluoro-2-(4-fluorophenyl)-N-{4-[7-(pyridin-2-yl)-4-(2,2,2-trifluoroethoxy)-5H-pyrrolo[3,2-d]pyrimidin-6-yl]pyridin-2-yl}butanamide] are 85 nM and over 20000 nM.
For `O=C(Nc1cc(-c2[nH]c3cc(F)cnc3c2-c2ccccc2)ccn1)C(CC(F)F)c1ccc(F)cc1` (racemic) [Example 19, 4,4-difluoro-2-(4-fluorophenyl)-N-[4-(6-fluoro-3-phenyl-1H-pyrrolo[3,2-b]pyridin-2-yl)pyridin-2-yl]butanamide], the IC50 is 9.22 nM in assay [1] and 602 nM in assay [2].
With `O=C(Nc1cc(-c2[nH]c3c(OCC(F)(F)F)ncnc3c2-c2ccccn2)ccn1)C(CC(F)(F)F)c1ccc(F)cc1` (single isomer, unassigned) [Example 126, (2R or S)-4,4,4-trifluoro-2-(4-fluorophenyl)-N-{4-[7-(pyridin-2-yl)-4-(2,2,2-trifluoroethoxy)-5H-pyrrolo[3,2-d]pyrimidin-6-yl]pyridin-2-yl}butanamide], the values for the IC50 in assay [1] and in assay [2] were 5.94 nM and 20 nM, respectively.
Consider `O=C(Nc1cc(-c2[nH]c3cc(F)cnc3c2-c2ccccn2)ccn1)C(CC(F)F)c1ccc(F)cc1` (racemic) [Example 16, 4,4-difluoro-2-(4-fluorophenyl)-N-{4-[6-fluoro-3-(pyridin-2-yl)-1H-pyrrolo[3,2-b]pyridin-2-yl]pyridin-2-yl}butanamide], for which the figures for the IC50 in assay [1] and in assay [2] were 3.39 nM and 21.9 nM, respectively.
Taken in the same sequence, the figures for `O=C(Nc1cc(-c2[nH]c3nccnc3c2-c2ccccn2)ccn1)C(CC(F)F)c1ccc(F)cc1` (racemic) [Example 31, (2RS)-4,4-difluoro-2-(4-fluorophenyl)-N-{4-[7-(pyridin-2-yl)-5H-pyrrolo[2,3-b]pyrazin-6-yl]pyridin-2-yl}butanamide] were 3.04 nM and 3.04 nM.
As for `O=C(Nc1cc(-c2[nH]c3nccnc3c2-c2ccccn2)ccn1)C(CC(F)(F)F)c1ccc(F)cc1` (single isomer, unassigned) [Example 121, (2R or S)-4,4,4-trifluoro-2-(4-fluorophenyl)-N-{4-[7-(pyridin-2-yl)-5H-pyrrolo[2,3-b]pyrazin-6-yl]pyridin-2-yl}butanamide], the IC50 in assay [1] is 29.4 nM; in assay [2] it was 946 nM.
As for `O=C(Nc1cc(-c2[nH]c3cccnc3c2-c2ncccn2)ccn1)C(CC(F)F)c1ccc(F)cc1` (racemic) [Example 112, (2RS)-4,4-difluoro-2-(4-fluorophenyl)-N-[4-(3-pyrimidin-2-yl-1H-pyrrolo[3,2-b]pyridin-2-yl)-2-pyridyl]butanamide], the IC50 in assay [1] was found to be 10.1 nM; in assay [2], 217 nM.
